Results reported in PMC10663540, “Structure-based discovery of dual pathway inhibitors for SARS-CoV-2 entry” (Nature Communications, 2023).
Values joined by “and” are separate entries in the source; they are usually repeats but may differ in a detail not shown here. Equal entries are not always repeated.

Assays:
TMPRSS2 = TMPRSS2 (Homo sapiens, UniProt O15393); test: biochemical; format: biochemical
human CTSL = target: T1, human CTSL (Homo sapiens, UniProt P07711); test: FRET enzymatic inhibition assay of CTSL (IC50 measurement); format: biochemical; conditions: Fig. 5c
T1 construct: made in house
T1 sequence (P07711 114-333): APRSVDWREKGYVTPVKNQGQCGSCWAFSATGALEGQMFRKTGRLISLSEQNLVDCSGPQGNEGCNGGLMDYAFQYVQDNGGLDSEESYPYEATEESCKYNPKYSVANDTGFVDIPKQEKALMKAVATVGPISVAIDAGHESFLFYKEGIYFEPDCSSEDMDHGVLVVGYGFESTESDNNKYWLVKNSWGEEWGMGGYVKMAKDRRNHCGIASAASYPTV

Sequence of TMPRSS2 (O15393 256-492): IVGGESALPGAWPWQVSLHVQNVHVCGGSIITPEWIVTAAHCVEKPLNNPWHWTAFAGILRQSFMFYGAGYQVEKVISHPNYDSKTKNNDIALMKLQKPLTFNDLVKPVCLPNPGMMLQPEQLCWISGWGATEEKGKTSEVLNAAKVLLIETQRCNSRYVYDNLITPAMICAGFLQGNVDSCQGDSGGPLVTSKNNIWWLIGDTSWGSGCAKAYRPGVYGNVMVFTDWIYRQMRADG
Sequence of TMPRSS2 (O15393 other isoform, or with tags, fused parts or gaps): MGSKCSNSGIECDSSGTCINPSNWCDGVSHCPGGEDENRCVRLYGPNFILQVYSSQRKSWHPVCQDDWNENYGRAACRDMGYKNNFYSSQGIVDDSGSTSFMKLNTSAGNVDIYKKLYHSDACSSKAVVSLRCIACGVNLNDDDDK

`NC(N)=Nc1ccc(C(=O)OCCN2CCN(C(=O)N[C@@H](Cc3ccccc3)C(=O)N[C@H](/C=C/S(=O)(=O)c3ccccc3)CCc3ccccc3)CC2)cc1` [212-148] was tested, and the IC50 (TMPRSS2; 0.5 nM TMPRSS2, 10 μM substrate, mean ± SD, four replicates) was 1380 nM, the “Inhibition: TMPRSS2” value (TMPRSS2; 212-148 15.2588 nM, Fig. 5b) was 5.04% and 4.06% and 3.14% and the inhibition at 0.0152588 µM (TMPRSS2; 212-148 15.2588 nM, Fig. 5b) was 3.01%. The “Inhibition: TMPRSS2” value (TMPRSS2; 212-148 30.5176 nM, Fig. 5b) was 3.05% and 3.16% and 4.84%, the inhibition at 0.0305176 µM (TMPRSS2; 212-148 30.5176 nM, Fig. 5b) was 4.19% and the “Inhibition: TMPRSS2” value (TMPRSS2; 212-148 61.0352 nM, Fig. 5b) was 6.85% and 6.15% and 3.83%. For the same compound, the inhibition at 0.0610352 µM (TMPRSS2; 212-148 61.0352 nM, Fig. 5b) was 6.56%, the “Inhibition: TMPRSS2” value (TMPRSS2; 212-148 122.07 nM, Fig. 5b) was 7.87% and 8.22% and 8.32% and the inhibition at 0.12207 µM (TMPRSS2; 212-148 122.07 nM, Fig. 5b) was 8.2%. The “Inhibition: TMPRSS2” value (TMPRSS2; 212-148 244.141 nM, Fig. 5b) was 13.88% and 12.56% and 13.21%, the inhibition at 0.244141 µM (TMPRSS2; 212-148 244.141 nM, Fig. 5b) was 13.6% and the “Inhibition: TMPRSS2” value (TMPRSS2; 212-148 488.281 nM, Fig. 5b) was 22.52% and 22.28% and 23.91%. The inhibition at 0.488281 µM (TMPRSS2; 212-148 488.281 nM, Fig. 5b) was 23.3%, the “Inhibition: TMPRSS2” value (TMPRSS2; 212-148 976.562 nM, Fig. 5b) was 40.08% and 39.01% and 40.36% and the inhibition at 0.976562 µM (TMPRSS2; 212-148 976.562 nM, Fig. 5b) was 39.7%. The “Inhibition: TMPRSS2” value (TMPRSS2; 212-148 1953.12 nM, Fig. 5b) was 63.03% and 61.74% and 62.43%, the inhibition at 1.95312 µM (TMPRSS2; 212-148 1953.12 nM, Fig. 5b) was 61.1% and the “Inhibition: TMPRSS2” value (TMPRSS2; 212-148 3906.25 nM, Fig. 5b) was 83.44% and 83.94% and 85.49%. The inhibition at 3.90625 µM (TMPRSS2; 212-148 3906.25 nM, Fig. 5b) was 83.6%, the “Inhibition: TMPRSS2” value (TMPRSS2; 212-148 7812.5 nM, Fig. 5b) was 95.50% and 95.52% and 96.33% and the inhibition at 7.8125 µM (TMPRSS2; 212-148 7812.5 nM, Fig. 5b) was 94.8%. The “Inhibition: TMPRSS2” value (TMPRSS2; 212-148 15625 nM, Fig. 5b) was 98.35% and 96.17% and 99.57%, the inhibition at 15.625 µM (TMPRSS2; 212-148 15625 nM, Fig. 5b) was 97.8% and the “Inhibition: TMPRSS2” value (TMPRSS2; 212-148 31250 nM, Fig. 5b) was 98.24% and 98.70% and 100.24%. For the same compound, the inhibition at 31.25 µM (TMPRSS2; 212-148 31250 nM, Fig. 5b) was 97.8%, the “Inhibition: TMPRSS2” value (TMPRSS2; 212-148 62500 nM, Fig. 5b) was 98.19% and 99.09% and 100.93% and the inhibition at 62.5 µM (TMPRSS2; 212-148 62500 nM, Fig. 5b) was 98%. For the same compound, the “Inhibition: TMPRSS2” value (TMPRSS2; 212-148 125000 nM, Fig. 5b) was 98.93% and 99.03% and 99.02%, the inhibition at 125 µM (TMPRSS2; 212-148 125000 nM, Fig. 5b) was 98.3% and the “Inhibition: TMPRSS2” value (TMPRSS2; 212-148 250000 nM, Fig. 5b) was 99.15% and 99.14% and 99.60%. The inhibition at 250 µM (TMPRSS2; 212-148 250000 nM, Fig. 5b) was 98.1%, the “Inhibition: TMPRSS2” value (TMPRSS2; 212-148 500000 nM, Fig. 5b) was 100.68% and 99.05% and 100.75% and the inhibition at 500 µM (TMPRSS2; 212-148 500000 nM, Fig. 5b) was 100%. The “Inhibition: TMPRSS2” value (TMPRSS2; 212-148 1000000 nM, Fig. 5b) was 100.30% and 98.80% and 100.85%, the inhibition at 1000 µM (TMPRSS2; 212-148 1000000 nM, Fig. 5b) was 99.8% and the “Inhibition: TMPRSS2” value (TMPRSS2; 212-148 2000000 nM, Fig. 5b) was 100.85% and 100.05% and 100.27%. The inhibition at 2000 µM (TMPRSS2; 212-148 2000000 nM, Fig. 5b) was 99%, the “Inhibition: CTSL” value (human CTSL; 212-148 0.0152588 nM) was 2.91% and -0.21% and -1.28% and 1.99% and the “Inhibition: CTSL” value (human CTSL; 212-148 0.0305176 nM) was 3.33% and -0.12% and 1.43% and -2.77%. For the same compound, the “Inhibition: CTSL” value (human CTSL; 212-148 0.0610352 nM) was -0.57% and 0.90% and 3.39% and -2.15%, the “Inhibition: CTSL” value (human CTSL; 212-148 0.12207 nM) was 9.01% and 2.36% and 0.90% and 3.32% and the “Inhibition: CTSL” value (human CTSL; 212-148 0.244141 nM) was 8.36% and 6.61% and 10.35%. For the same compound, the inhibition at 0.000244141 µM (human CTSL; 212-148 0.244141 nM) was 6.2%, the “Inhibition: CTSL” value (human CTSL; 212-148 0.488281 nM) was 11.98% and 10.08% and 8.64% and the inhibition at 0.000488281 µM (human CTSL; 212-148 0.488281 nM) was 11.8%. The “Inhibition: CTSL” value (human CTSL; 212-148 0.976562 nM) was 27.34% and 25.99% and 25.66%, the inhibition at 0.000976562 µM (human CTSL; 212-148 0.976562 nM) was 23.1% and the “Inhibition: CTSL” value (human CTSL; 212-148 1.95312 nM) was 44.61% and 46.51% and 45.72%. The inhibition at 0.00195312 µM (human CTSL; 212-148 1.95312 nM) was 48%, the “Inhibition: CTSL” value (human CTSL; 212-148 3.90625 nM) was 71.05% and 70.57% and 71.92% and the inhibition at 0.00390625 µM (human CTSL; 212-148 3.90625 nM) was 73.5%. For the same compound, the “Inhibition: CTSL” value (human CTSL; 212-148 7.8125 nM) was 92.07% and 92.09% and 91.52%, the inhibition at 0.0078125 µM (human CTSL; 212-148 7.8125 nM) was 91.9% and the “Inhibition: CTSL” value (human CTSL; 212-148 15.625 nM) was 98.41% and 99.33% and 98.88%. The inhibition at 0.015625 µM (human CTSL; 212-148 15.625 nM) was 98.4%, the “Inhibition: CTSL” value (human CTSL; 212-148 31.25 nM) was 100.04% and 99.69% and 99.78% and the inhibition at 0.03125 µM (human CTSL; 212-148 31.25 nM) was 99.8%. For the same compound, the “Inhibition: CTSL” value (human CTSL; 212-148 62.5 nM) was 100.21% and 99.82% and 99.78%, the inhibition at 0.0625 µM (human CTSL; 212-148 62.5 nM) was 100% and the “Inhibition: CTSL” value (human CTSL; 212-148 125 nM) was 100.33% and 100.36% and 100.30%. For the same compound, the inhibition at 0.125 µM (human CTSL; 212-148 125 nM) was 100%, the “Inhibition: CTSL” value (human CTSL; 212-148 250 nM) was 99.87% and 99.66% and 100.24% and the inhibition at 0.25 µM (human CTSL; 212-148 250 nM) was 100%. The “Inhibition: CTSL” value (human CTSL; 212-148 500 nM) was 100.03% and 100.68% and 99.61%, the inhibition at 0.5 µM (human CTSL; 212-148 500 nM) was 99.9% and the “Inhibition: CTSL” value (human CTSL; 212-148 1000 nM) was 100.34% and 99.76% and 100.32%. For the same compound, the inhibition at 1 µM (human CTSL; 212-148 1000 nM) was 99.5%, the “Inhibition: CTSL” value (human CTSL; 212-148 2000 nM) was 100.56% and 99.97% and the inhibition at 2 µM (human CTSL; 212-148 2000 nM) was 99%.
